Some results are limits rather than exact numbers.

Experiment in all cases: In vitro MMP inhibition, IC50 determination (fluorogenic substrate I)
Holding throughout (assay type): biochemical
Holding throughout (settings): value outside parenthesis

One experiment concerns the target T1, Human recombinant MMP-1 (Homo sapiens, UniProt P03956).
T1 construct: made in house; host or cells: MMP-1-transfected HT-1080 cells (spent media)
T1 sequence (P03956 100-469): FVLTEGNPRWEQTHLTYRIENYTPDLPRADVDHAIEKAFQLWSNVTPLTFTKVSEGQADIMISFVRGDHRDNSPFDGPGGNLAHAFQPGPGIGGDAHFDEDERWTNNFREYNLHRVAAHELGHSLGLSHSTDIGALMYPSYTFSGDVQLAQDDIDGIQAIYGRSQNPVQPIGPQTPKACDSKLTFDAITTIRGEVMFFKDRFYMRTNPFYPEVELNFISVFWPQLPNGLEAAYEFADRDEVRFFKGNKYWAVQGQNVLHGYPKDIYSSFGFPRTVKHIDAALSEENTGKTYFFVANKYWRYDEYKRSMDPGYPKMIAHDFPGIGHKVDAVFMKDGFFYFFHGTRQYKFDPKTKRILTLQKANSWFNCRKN
A digest of the protocol: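 Inhibitor dilutions were made in 100 mM Tris-HCl/100 mM NaCl/10 mM CaCl2 buffer, pH 7.5, and incubated at room temperature with activated proenzyme (from transfected HT-1080 media; APMA or trypsin) and 4 μM quenched methoxycoumarin peptide substrate. Loss of 415 nm fluorescence (328 nm excitation) against concentration gave IC50.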

Another experiment deals with T2, Human recombinant MMP-2 (Homo sapiens, UniProt P08253).
T2 construct: made in house; host or cells: MMP-2-transfected p2AHT2 cells
T2 sequence (P08253 110-660): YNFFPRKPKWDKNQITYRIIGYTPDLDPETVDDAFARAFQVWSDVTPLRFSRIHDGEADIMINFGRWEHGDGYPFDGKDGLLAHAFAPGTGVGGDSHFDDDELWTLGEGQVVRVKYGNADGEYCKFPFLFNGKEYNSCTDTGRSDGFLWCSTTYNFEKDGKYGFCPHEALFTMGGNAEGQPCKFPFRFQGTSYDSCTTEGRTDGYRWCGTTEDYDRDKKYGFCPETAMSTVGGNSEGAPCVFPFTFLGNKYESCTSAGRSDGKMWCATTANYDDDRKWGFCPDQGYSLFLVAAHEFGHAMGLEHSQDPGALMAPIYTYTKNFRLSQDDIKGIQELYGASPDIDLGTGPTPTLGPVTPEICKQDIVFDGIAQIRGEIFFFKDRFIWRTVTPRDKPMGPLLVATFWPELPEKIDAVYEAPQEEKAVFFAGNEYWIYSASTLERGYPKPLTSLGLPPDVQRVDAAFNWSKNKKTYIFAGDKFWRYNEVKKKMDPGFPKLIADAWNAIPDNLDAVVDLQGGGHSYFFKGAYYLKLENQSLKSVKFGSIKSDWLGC
A digest of the protocol:
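IC50 was derived from the concentration-dependent fall in fluorescence (ex 328, em 415 nm) on Gly-Leu cleavage of 4 μM MCA/Dpa-quenched substrate I. Assays ran at room temperature in pH 7.5 Tris/NaCl/CaCl2/Brij buffer with MMP-2 activated by trypsin or APMA; inhibitors were diluted from 1% DMSO stocks.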

The next experiment deals with T3, Human recombinant MMP-9 (Homo sapiens, UniProt P14780).
T3 construct: made in house; host or cells: MMP-9-transfected HT1080 cells (spent media)
In outline: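 Reduction in fluorescence (328 nm excitation, 415 nm emission) from cleavage of 4 μM quenched peptide substrate I, measured at room temperature against inhibitor concentration, gave IC50. Enzyme: trypsin- or APMA-activated MMP-9 purified from transfected HT1080 medium; buffer 100 mM Tris, 100 mM NaCl, 10 mM CaCl2, pH 7.5.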

Another experiment has as its target T4, Human recombinant MMP-13 (Homo sapiens, UniProt P45452).
T4 construct: made in house; host or cells: baculovirus / insect cells
A digest of the protocol: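 Fluorescence at 415 nm (excitation 328 nm) reports Gly-Leu cleavage of 4 μM quenched methoxycoumarin peptide substrate I. Human recombinant MMP-13, activated by trypsin or APMA, was incubated at room temperature with varied inhibitor concentrations in pH 7.5 Tris/NaCl/CaCl2 buffer; IC50 derived from reduced fluorescence.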

Another experiment has as its target T5, Human recombinant MMP-14 (Homo sapiens, UniProt P50281).
T5 construct: The catalytic domain enzyme was expressed in E. coli inclusion bodies, solubilized in urea; made in house
In outline:
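IC50 came from reduced fluorescence (ex 328 nm, em 415 nm) as inhibitor concentration rose, with 4 μM substrate I cleaved at Gly-Leu. Room-temperature incubation in pH 7.5 Tris buffer with 10 mM CaCl2; the E. coli-expressed, refolded MMP-14 catalytic domain was activated with trypsin or APMA.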

T3 sequence (P14780 107-707 limits assumed): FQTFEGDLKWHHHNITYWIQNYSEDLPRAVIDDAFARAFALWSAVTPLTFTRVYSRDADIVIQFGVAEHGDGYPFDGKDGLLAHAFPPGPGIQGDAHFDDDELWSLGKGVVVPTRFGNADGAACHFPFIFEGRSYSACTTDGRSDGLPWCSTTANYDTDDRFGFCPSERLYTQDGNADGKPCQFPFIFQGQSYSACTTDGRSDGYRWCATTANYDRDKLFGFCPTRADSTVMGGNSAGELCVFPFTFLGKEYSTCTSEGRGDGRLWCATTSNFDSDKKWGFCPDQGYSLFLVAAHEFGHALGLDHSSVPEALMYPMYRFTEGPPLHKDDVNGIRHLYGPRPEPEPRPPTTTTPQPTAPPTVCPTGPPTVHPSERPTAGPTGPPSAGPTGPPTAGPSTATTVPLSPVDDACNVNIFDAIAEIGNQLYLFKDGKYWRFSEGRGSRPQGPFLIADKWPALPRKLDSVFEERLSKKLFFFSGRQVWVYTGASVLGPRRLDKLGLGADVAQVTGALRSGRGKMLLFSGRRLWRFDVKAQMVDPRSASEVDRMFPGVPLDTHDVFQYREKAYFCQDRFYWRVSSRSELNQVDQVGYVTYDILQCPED

On to `O=C(NO)C1(S(=O)(=O)c2ccc(OCCCc3nc(-c4ccc(Cl)cc4)no3)cc2)CCOCC1` [Example 243], for which the concentration for half-maximal inhibition (IC50) on Human recombinant MMP-1 is 9310 nM; at Human recombinant MMP-2, 49.4 nM; on Human recombinant MMP-9 it was 2100 nM; at Human recombinant MMP-13, 0.5 nM; on Human recombinant MMP-14 it was > 10000 nM.

Turning to `O=C(NO)C1(S(=O)(=O)c2ccc(OCCCc3nnc(Cl)o3)cc2)CCOCC1` [Example 244], the 50% inhibitory concentration (IC50) at Human recombinant MMP-1 is 3250 nM; at Human recombinant MMP-2 it was 18.8 nM; at Human recombinant MMP-9 it was 108 nM; on Human recombinant MMP-13 it was 0.7 nM; on Human recombinant MMP-14, > 10000 nM.

`COCCN1CCC(C(=O)NO)(S(=O)(=O)c2ccc(OCCCCC(=O)c3ccc(OC)cc3)cc2)CC1` [Example 245]: the concentration for half-maximal inhibition (IC50) was > 10000 nM at Human recombinant MMP-1; 8.6 nM on Human recombinant MMP-2; 61.1 nM on Human recombinant MMP-9; 0.2 nM on Human recombinant MMP-13; > 10000 nM at Human recombinant MMP-14.

As to `CC(C)c1ccc(C(=O)NNC(=O)CCCOc2ccc(S(=O)(=O)C3(C(=O)NO)CCOCC3)cc2)cc1` [Example 246], the IC50 was 1170 nM at Human recombinant MMP-1; 7.5 nM at Human recombinant MMP-2; 105 nM on Human recombinant MMP-9; 3 nM on Human recombinant MMP-13; > 10000 nM at Human recombinant MMP-14.

For `CC(C)c1ccc(-c2nnc(CCCOc3ccc(S(=O)(=O)C4(C(=O)NO)CCOCC4)cc3)o2)cc1` [Example 247], the 50% inhibitory concentration (IC50) at Human recombinant MMP-1 was 3610 nM; on Human recombinant MMP-2 it was 445 nM; on Human recombinant MMP-9 it was 341 nM; at Human recombinant MMP-13, 1.1 nM; on Human recombinant MMP-14, > 10000 nM.

`COCCN1CCC(C(=O)NO)(S(=O)(=O)c2ccc(OCCCCC(=O)c3ccc(N(C)C)cc3)cc2)CC1` [Example 248]: the IC50 at Human recombinant MMP-1 is > 10000 nM; at Human recombinant MMP-2, 15.7 nM; on Human recombinant MMP-9 it was 106 nM; on Human recombinant MMP-13, 0.2 nM; on Human recombinant MMP-14, 1700 nM.

As for `COc1ccc(-c2nnn(CCCOc3ccc(S(=O)(=O)C4(C(=O)NO)CCOCC4)cc3)n2)cc1` [Example 252], the IC50 on Human recombinant MMP-1 is 5600 nM; on Human recombinant MMP-2, 47.9 nM; at Human recombinant MMP-9, 1050 nM; at Human recombinant MMP-13 it was 0.2 nM; at Human recombinant MMP-14 it was > 10000 nM.

As to `Cc1cc(C(=O)CCCCOc2ccc(S(=O)(=O)C3(C(=O)NO)CCN(C4CC4)CC3)cc2)ccc1OC(C)C` [Example 254], the half-maximal inhibitory concentration (IC50) is > 10000 nM on Human recombinant MMP-1; 138 nM on Human recombinant MMP-2; 968 nM at Human recombinant MMP-9; 1.7 nM at Human recombinant MMP-13; > 10000 nM on Human recombinant MMP-14.

Turning to `COc1ccc(CCCCc2ccc(S(=O)(=O)C3(C(=O)NO)CCOCC3)cc2)cc1` [Example 256], the half-inhibitory concentration (IC50) on Human recombinant MMP-1 is > 10000 nM; at Human recombinant MMP-2 it was 0.1 nM; at Human recombinant MMP-9, 37.9 nM; on Human recombinant MMP-13, < 0.1 nM; at Human recombinant MMP-14, > 10000 nM.

For the compound `O=C(NO)C1(S(=O)(=O)c2ccc(OCCCc3nnc(-c4ccc(-c5ccccc5)cc4)o3)cc2)CCOCC1` [Example 257], the IC50 at Human recombinant MMP-1 was > 10000 nM; at Human recombinant MMP-2, 174 nM; at Human recombinant MMP-9 it was 6230 nM; at Human recombinant MMP-13 it was 0.5 nM; on Human recombinant MMP-14, > 10000 nM.

As to `Cc1cccc(-c2nnc(CCCOc3ccc(S(=O)(=O)C4(C(=O)NO)CCOCC4)cc3)o2)c1` [Example 258], the IC50 at Human recombinant MMP-1 was > 10000 nM; at Human recombinant MMP-2 it was 173 nM; on Human recombinant MMP-9, 1960 nM; on Human recombinant MMP-13, 1.7 nM; at Human recombinant MMP-14, > 10000 nM.

In the case of `Cc1ccc(-c2nnc(CCCOc3ccc(S(=O)(=O)C4(C(=O)NO)CCOCC4)cc3)o2)cc1` [Example 259], the half-inhibitory concentration (IC50) on Human recombinant MMP-1 was 7260 nM; at Human recombinant MMP-2 it was 201 nM; at Human recombinant MMP-9, 1880 nM; on Human recombinant MMP-13 it was 0.7 nM; at Human recombinant MMP-14 it was > 10000 nM.

In the case of `O=C(NO)C1(S(=O)(=O)c2ccc(OCCCc3nnc(-c4ccc(Cl)cc4)o3)cc2)CCOCC1` [Example 260], the IC50 on Human recombinant MMP-1 was 1160 nM; on Human recombinant MMP-2, 13.2 nM; at Human recombinant MMP-9, 391 nM; at Human recombinant MMP-13, 1.8 nM; on Human recombinant MMP-14, > 10000 nM.

As to `O=C(NO)C1(S(=O)(=O)c2ccc(OCCCc3nnc(-c4ccccc4Cl)o3)cc2)CCOCC1` [Example 261], the IC50 at Human recombinant MMP-1 was > 10000 nM; at Human recombinant MMP-2 it was 178 nM; at Human recombinant MMP-9, 1190 nM; on Human recombinant MMP-13, 1.9 nM; on Human recombinant MMP-14, > 10000 nM.

Consider `O=C(NO)C1(S(=O)(=O)c2ccc(OCCCc3nnc(CC4CCCCC4)o3)cc2)CCOCC1` [Example 262], for which the IC50 at Human recombinant MMP-1 is > 10000 nM; on Human recombinant MMP-2 it was 118 nM; at Human recombinant MMP-9 it was 1700 nM; at Human recombinant MMP-13, 3 nM; at Human recombinant MMP-14, > 10000 nM.

Regarding `CCOc1ccccc1-c1noc(CCCOc2ccc(S(=O)(=O)C3(C(=O)NO)CCOCC3)cc2)n1` [Example 264], the IC50 on Human recombinant MMP-1 was > 10000 nM; on Human recombinant MMP-2, 163 nM; at Human recombinant MMP-9, 287 nM; at Human recombinant MMP-13 it was 5.3 nM; on Human recombinant MMP-14, > 10000 nM.

For `O=C(NO)C1(S(=O)(=O)c2ccc(OCCCc3nc(-c4cccc(OC(F)(F)F)c4)no3)cc2)CCOCC1` [Example 266], the IC50 on Human recombinant MMP-1 is > 10000 nM; on Human recombinant MMP-2, 391 nM; on Human recombinant MMP-9, 203 nM; at Human recombinant MMP-13, 9.1 nM; at Human recombinant MMP-14, > 10000 nM.

For the compound `CCOc1ccc(-c2noc(CCCOc3ccc(S(=O)(=O)C4(C(=O)NO)CCN(C5CC5)CC4)cc3)n2)cc1` [Example 268], the IC50 was > 10000 nM at Human recombinant MMP-1; 126 nM on Human recombinant MMP-2; 674 nM at Human recombinant MMP-9; 2.5 nM on Human recombinant MMP-13; > 10000 nM at Human recombinant MMP-14.

Consider `O=C(NO)C1(S(=O)(=O)c2ccc(OCCCc3cccc(-c4ccccc4)c3)cc2)CCOCC1` [Example 269], for which the IC50 is > 10000 nM at Human recombinant MMP-1; 898 nM at Human recombinant MMP-2; 2750 nM on Human recombinant MMP-9; 1.8 nM on Human recombinant MMP-13; > 10000 nM on Human recombinant MMP-14.

For the compound `CC1CC(C)CN(S(=O)(=O)CCCOc2ccc(S(=O)(=O)C3(C(=O)NO)CCOCC3)cc2)C1` (stereo not shown) [Example 271], the half-maximal inhibitory concentration (IC50) on Human recombinant MMP-1 was > 10000 nM; at Human recombinant MMP-2, 8.7 nM; on Human recombinant MMP-9 it was 532 nM; at Human recombinant MMP-13, 2.9 nM; at Human recombinant MMP-14, > 10000 nM.

Consider `O=C(CCCOc1ccc(S(=O)(=O)C2(C(=O)NO)CCOCC2)cc1)NNC(=O)c1ccc(Cl)cc1` [Example 272], for which the IC50 is 399 nM at Human recombinant MMP-1; 4.2 nM on Human recombinant MMP-2; 152 nM at Human recombinant MMP-9; 2.8 nM at Human recombinant MMP-13; > 10000 nM at Human recombinant MMP-14.

On to `COC(=O)CCCOc1ccc(S(=O)(=O)C2(C(=O)NO)CCOCC2)cc1` [Example 274], for which the IC50 on Human recombinant MMP-1 was 9860 nM; at Human recombinant MMP-2 it was 15.4 nM; on Human recombinant MMP-9, 33.6 nM; at Human recombinant MMP-13, 4.1 nM; at Human recombinant MMP-14, > 10000 nM.

In the case of `CC(CCOc1ccc(S(=O)(=O)C2(C(=O)NO)CCOCC2)cc1)C(=O)c1cccs1` (stereo not shown) [Example 276], the half-inhibitory concentration (IC50) on Human recombinant MMP-1 was found to be 6670 nM; on Human recombinant MMP-2 it was 17.4 nM; at Human recombinant MMP-9, 196 nM; on Human recombinant MMP-13, 2.8 nM; on Human recombinant MMP-14 it was 7020 nM.

As usually defined, the IC50 is the concentration at which inhibition is half-maximal.

The values above are taken from patent US20040024024A1, “Aromatic sulfone hydroxamates and their use as protease inhibitors” (priority 2001, published 2004).
